Reference: patent US20240239761A1, “BICYCLIC PHENOL COMPOUNDS AND USE THEREOF” (MEDSHINE DISCOVERY INC., priority 2021, published 2024)
Like-named read-outs stand apart in the source and are kept apart here.

Tests used:
THRα = THRα (Homo sapiens (Human), UniProt P10827); assay: GeneBLAzer TR alpha-UAS-bla HEK 293T cell-based agonist assay; conditions: TR alpha-UAS-bla HEK 293T cells; for EC50: 22 hours incubation; for THRα maximum agnostic capability: T3 as positive control
Procedure: When a compound enters the cell and binds to THR, the receptor binds to the DNA binding region to form a complete GAL4 dimer that utilizes the GAL4-UAS system to activate β-lactamase expression, which then decomposes the substrate CCF4-AM (coumarin).
The LiveBLAzer™M-FRET B/G (CCF4-AM) substrate was added to the cell plate and incubated for 2 hours at room temperature, shielded from light. […] By detecting the ratio of the two fluorescences (460 nm/530 nm), the EC50 of the compound was calculated using Graphpad Prism software. […] The Z-factor (greater than 0.5) is calculated to monitor the stability of each experiment.

CYP1A2 = CYP1A2 (Homo sapiens (Human), UniProt P05177); format: in vitro ADME; conditions: microsomes
Procedure: (§1) To determine the inhibitory effect of the test compound WX001 on the activity of human liver microsomal cytochrome P450 isoenzymes (CYP1A2, CYP2C9, CYP2C19, CYP2D6, and CYP3A4). First, the test compound (10.0 mM) was diluted to prepare a working solution (100×the final concentration) with a concentration of 1.00 mM. Simultaneously, working solutions were respectively prepared for positive inhibitors of the P450 isoenzymes (CYP1A2, CYP2C9, CYP2C19, CYP2D6, CYP3A4 (with midazolam as a probe substrate), and CYP3A4 (with testosterone as a probe substrate)) and specific probe substrates thereof. Human liver microsomes, stored in a refrigerator at a temperature lower than −60° C., were thawed on ice, and once fully dissolved, were diluted with PB to prepare a working solution of a specific concentration (0.127 mg/mL). 20.0 μL of probe substrate was added to the reaction plate (20.0 μL of PB was added to the Blank wells), followed by the addition of 158 μL of human liver microsomal working solution to the reaction plate. The reaction plate was then placed on ice for later use. Then, 2.00 μL of the test compound (N=1) and specific inhibitors (N=2) were added to the corresponding wells. […] Lastly, the plate was sealed, shaken to ensure the content was thoroughly mixed, and analyzed by LC/MS/MS.

CYP2D6 = CYP2D6 (Homo sapiens (Human), UniProt P10635); assay: Inhibition of human liver microsomal cytochrome P450 isoenzyme CYP2D6; format: in vitro ADME; conditions: human liver microsomes
Procedure: as §1

[1] = Pharmacokinetic study of oral and intravenous administration in rats; format: in vivo, rat; conditions: male SD rats; for half-life: read-out: Half-life T1/2 (converted)
Procedure: Pharmacokinetic study of oral and intravenous administration of WX001 in rats
Male SD rats were selected, and given the test compound as detailed in Table 3.
Whole blood was collected for a certain period of time and prepared into plasma. The drug concentration was analyzed by the LC-MS/MS method, and the pharmacokinetic parameters were calculated using Phoenix WinNonlin software (Pharsight, USA).

THRβ = THRβ (Homo sapiens, UniProt P10828); assay: GeneBLAzer TR beta-UAS-bla HEK 293T cell-based agonist assay; conditions: for THRß maximum agnostic capability: TR beta-UAS-bla HEK 293T cells, T3 as positive control
Text: The present experiment employs the GeneBLAzer® TR alpha/beta-UAS-bla HEK 293T Cell-based Assay developed by ThermoFisher. The underlying principle is that TR alpha-UAS-bla HEK 293T Cell and TR beta-UAS-bla HEK 293T Cell express B-lactamase, a reporter gene controlled by the upstream UAS sequence. When a compound enters the cell and binds to THR, the receptor binds to the DNA binding region to form a complete GAL4 dimer that utilizes the GAL4-UAS system to activate β-lactamase expression, which then decomposes the substrate CCF4-AM (coumarin). The resulting product, when excited at 409 nm, emits fluorescence at a wavelength of 447 nm. If β-lactamase is not expressed, the product generates fluorescence at a wavelength of 520 nm through FRET under excitation at 409 nm. By detecting the ratio of the two fluorescences (447 nm/520 nm), the binding status of the compound to the protein can be determined, thus allowing the calculation of the EC50 of the compound.
The ECHO liquid handling workstation was used to transfer the compound to a 384-well plate, with 10 gradient concentrations for each compound, 3-fold dilution, and duplicate wells. 1.5×10^4 cells (TR beta-UAS-bla HEK 293T Cell) or 1.0×10^4 cells (TR alpha-UAS-bla HEK 293T Cell) were seeded onto the 384-well plate. HEK 293T-TR beta cells were incubated for 16 hours in a 37° C. incubator, and HEK 293T-TR alpha cells were incubated for 22 hours. The LiveBLAzer™M-FRET B/G (CCF4-AM) substrate was added to the cell plate and incubated for 2 hours at room temperature, shielded from light. The Flexstation 3 instrument was utilized to detect the fluorescence values with the wavelength of 460 nm/530 nm emitted by the product under the excitation at 409 nm. By detecting the ratio of the two fluorescences (460 nm/530 nm), the EC50 of the compound was calculated using Graphpad Prism software. […] The Z-factor (greater than 0.5) is calculated to monitor the stability of each experiment.

CYP2C19 = CYP2C19 (Homo sapiens (Human), UniProt P33261); assay: Inhibition of human liver microsomal cytochrome P450 isoenzyme CYP2C19; format: in vitro ADME; conditions: human liver microsomes
Procedure: as §1

CYP3A4 = CYP3A4 (Homo sapiens (Human), UniProt P08684); assay: Inhibition of human liver microsomal cytochrome P450 isoenzyme CYP3A4; format: in vitro ADME; conditions: human liver microsomes
Procedure: as §1

CYP2C9 = CYP2C9 (Homo sapiens (Human), UniProt P11712); assay: Inhibition of human liver microsomal cytochrome P450 isoenzyme CYP2C9; format: in vitro ADME; conditions: human liver microsomes
Procedure: as §1

[2] = rat, plasma, 30 mg/kg, oral, 30 mpk

Chain of THRα (P10827 other isoform, or with tags, fused parts or gaps isoform P10827-2): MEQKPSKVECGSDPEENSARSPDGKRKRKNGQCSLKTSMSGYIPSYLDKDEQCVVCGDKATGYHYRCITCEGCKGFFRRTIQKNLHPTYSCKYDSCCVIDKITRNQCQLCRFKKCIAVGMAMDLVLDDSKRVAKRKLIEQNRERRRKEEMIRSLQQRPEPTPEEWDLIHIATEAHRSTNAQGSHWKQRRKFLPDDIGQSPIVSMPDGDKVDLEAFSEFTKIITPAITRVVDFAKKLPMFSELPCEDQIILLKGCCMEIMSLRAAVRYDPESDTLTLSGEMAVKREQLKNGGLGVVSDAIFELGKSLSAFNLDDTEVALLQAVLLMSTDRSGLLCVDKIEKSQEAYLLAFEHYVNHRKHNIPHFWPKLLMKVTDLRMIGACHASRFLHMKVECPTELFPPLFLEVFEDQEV
Chain of THRβ (P10828 whole entry, looked up, the tested form may be a part): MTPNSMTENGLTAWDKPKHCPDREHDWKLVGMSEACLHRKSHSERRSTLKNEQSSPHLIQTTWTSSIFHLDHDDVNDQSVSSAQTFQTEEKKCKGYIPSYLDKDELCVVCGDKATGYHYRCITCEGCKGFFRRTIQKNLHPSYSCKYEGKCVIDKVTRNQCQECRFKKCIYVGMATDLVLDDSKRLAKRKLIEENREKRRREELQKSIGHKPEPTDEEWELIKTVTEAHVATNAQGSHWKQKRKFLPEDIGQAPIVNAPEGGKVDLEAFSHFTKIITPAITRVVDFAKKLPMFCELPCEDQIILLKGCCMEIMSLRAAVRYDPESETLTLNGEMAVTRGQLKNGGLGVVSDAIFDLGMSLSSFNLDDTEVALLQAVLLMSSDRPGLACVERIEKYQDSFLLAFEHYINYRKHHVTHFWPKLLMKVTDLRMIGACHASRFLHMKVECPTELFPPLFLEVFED
Chain of CYP2D6 (P10635 whole entry): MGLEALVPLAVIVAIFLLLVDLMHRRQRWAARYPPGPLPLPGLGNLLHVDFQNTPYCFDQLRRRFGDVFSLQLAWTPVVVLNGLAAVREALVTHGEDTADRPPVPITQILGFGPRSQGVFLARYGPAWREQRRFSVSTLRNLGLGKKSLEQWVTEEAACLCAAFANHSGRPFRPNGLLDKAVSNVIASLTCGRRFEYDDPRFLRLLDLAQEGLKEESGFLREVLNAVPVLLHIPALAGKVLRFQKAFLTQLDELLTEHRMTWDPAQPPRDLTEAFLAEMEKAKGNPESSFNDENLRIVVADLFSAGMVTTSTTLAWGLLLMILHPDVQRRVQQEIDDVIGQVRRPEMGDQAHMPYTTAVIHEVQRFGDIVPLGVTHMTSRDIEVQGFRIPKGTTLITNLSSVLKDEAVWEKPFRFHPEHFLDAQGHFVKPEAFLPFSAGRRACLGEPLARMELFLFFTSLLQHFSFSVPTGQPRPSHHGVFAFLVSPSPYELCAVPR
Chain of CYP2C9 (P11712 whole entry): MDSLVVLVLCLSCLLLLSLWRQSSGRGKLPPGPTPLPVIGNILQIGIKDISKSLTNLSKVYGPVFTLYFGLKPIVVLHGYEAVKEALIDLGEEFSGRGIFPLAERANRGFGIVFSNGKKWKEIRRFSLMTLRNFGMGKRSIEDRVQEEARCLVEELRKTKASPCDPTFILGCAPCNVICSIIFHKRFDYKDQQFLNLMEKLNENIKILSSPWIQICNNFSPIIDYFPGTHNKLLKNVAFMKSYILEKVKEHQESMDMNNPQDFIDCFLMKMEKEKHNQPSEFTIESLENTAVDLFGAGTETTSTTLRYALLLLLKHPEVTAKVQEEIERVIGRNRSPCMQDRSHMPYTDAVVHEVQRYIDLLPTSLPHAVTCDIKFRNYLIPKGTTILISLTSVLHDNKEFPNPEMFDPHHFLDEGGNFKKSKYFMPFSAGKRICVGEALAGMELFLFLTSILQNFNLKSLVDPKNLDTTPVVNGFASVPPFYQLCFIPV
Chain of CYP2C19 (P33261 whole entry): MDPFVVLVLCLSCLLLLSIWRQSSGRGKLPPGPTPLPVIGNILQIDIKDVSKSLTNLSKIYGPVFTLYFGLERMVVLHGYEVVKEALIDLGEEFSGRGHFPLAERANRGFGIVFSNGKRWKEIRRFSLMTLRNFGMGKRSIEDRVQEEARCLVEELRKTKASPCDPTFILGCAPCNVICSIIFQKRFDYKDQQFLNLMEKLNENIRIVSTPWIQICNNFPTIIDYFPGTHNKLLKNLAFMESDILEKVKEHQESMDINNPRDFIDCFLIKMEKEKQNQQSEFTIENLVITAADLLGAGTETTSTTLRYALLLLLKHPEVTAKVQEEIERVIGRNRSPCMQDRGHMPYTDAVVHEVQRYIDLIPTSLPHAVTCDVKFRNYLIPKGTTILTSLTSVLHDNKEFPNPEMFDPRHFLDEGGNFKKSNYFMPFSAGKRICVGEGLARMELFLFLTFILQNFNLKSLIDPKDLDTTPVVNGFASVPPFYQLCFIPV
Chain of CYP3A4 (P08684 whole entry): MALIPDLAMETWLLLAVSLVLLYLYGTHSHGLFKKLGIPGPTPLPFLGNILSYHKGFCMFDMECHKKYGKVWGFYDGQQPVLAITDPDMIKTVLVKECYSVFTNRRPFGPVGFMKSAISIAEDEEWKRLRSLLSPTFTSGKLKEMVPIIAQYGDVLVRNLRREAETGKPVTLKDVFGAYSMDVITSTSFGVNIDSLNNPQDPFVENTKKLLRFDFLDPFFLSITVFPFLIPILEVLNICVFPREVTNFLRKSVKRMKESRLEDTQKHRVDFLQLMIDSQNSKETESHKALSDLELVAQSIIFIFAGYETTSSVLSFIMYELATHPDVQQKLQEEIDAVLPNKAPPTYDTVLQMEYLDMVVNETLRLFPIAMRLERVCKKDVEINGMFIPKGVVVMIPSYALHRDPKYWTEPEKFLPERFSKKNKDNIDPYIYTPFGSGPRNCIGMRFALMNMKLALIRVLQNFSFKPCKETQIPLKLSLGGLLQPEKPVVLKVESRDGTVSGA
Chain of CYP1A2 (P05177 whole entry): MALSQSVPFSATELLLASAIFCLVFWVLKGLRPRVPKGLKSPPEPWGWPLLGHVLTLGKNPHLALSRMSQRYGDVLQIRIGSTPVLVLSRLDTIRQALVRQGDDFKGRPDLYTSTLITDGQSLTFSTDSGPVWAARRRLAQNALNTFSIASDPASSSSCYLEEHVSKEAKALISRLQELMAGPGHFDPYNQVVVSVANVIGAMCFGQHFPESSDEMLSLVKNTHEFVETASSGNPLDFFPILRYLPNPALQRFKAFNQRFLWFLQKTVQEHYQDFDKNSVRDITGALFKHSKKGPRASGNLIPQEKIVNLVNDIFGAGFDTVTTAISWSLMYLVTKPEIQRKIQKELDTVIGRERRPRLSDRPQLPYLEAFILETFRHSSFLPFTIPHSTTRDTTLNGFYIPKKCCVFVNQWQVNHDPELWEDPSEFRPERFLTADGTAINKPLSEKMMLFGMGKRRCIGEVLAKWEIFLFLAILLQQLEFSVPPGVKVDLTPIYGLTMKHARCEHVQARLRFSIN

SMILES	EC50 (THRα) [nM]	THRα maximum agnostic capability (THRα) [%]	inhibitory effect on CYP1A2 (in words) (CYP1A2)	IC50 (CYP2D6) [nM]	inhibitory effect on CYP2D6 (in words) (CYP2D6)	Area under the plasma concentration-time curve/Dosage DNAUC0-last ([1]; intravenous, 3 mpk) [nM. h/mpk]	Area under the plasma concentration-time curve/Dosage DNAUC0-last ([1]; oral, 30 mpk) [nM. h/mpk]	Vd ([1]; rat, plasma, 3 mg/kg, intravenous, 3 mpk, read-out: Apparent volume of distribution Vdss) [L/kg]	clearance ([1]; rat, plasma, 3 mg/kg, intravenous, 3 mpk, read-out: Clearance CL) [mL/min/kg]	half-life ([1]; rat, plasma, 3 mg/kg, intravenous, 3 mpk) [h]	bioavailability [1, 2] [%]	half-life [1, 2] [h]	EC50 (THRβ) [nM]	THRß maximum agnostic capability (THRβ) [%]	IC50 (CYP2C19) [nM]	inhibitory effect on CYP2C19 (in words) (CYP2C19)	inhibitory effect on CYP3A4 (in words) (CYP3A4)	IC50 (CYP3A4; midazolam as probe substrate) [nM]	IC50 (CYP2C9) [nM]	inhibition against CYP2C9 (in words) (CYP2C9)
Cc1cc(NC(=O)c2noc(=O)[nH]2)cc(C)c1Cc1ccc(O)c2c1CCCC2 [WX001]	122	24	no inhibitory effects	41600	no inhibitory effects	5343	1939	0.411	7.93	1.66	36	1.6	39.4	103	5090	no inhibitory effects	no inhibitory effects	25400	3270	moderate inhibition
Cc1cc(NC(=O)c2noc(=O)[nH]2)cc(C)c1Cc1ccc(O)c(Cc2ccccc2)c1 [WX002]	1000	101	–	–	–	–	–	–	–	–	–	–	85.5	99	–	–	–	–	–	–
Cc1cc(NC(=O)c2noc(=O)[nH]2)cc(C)c1Cc1cc(I)c(O)c2c1CCCC2 [WX005]	155	85	–	–	–	–	–	–	–	–	–	–	57.8	96	–	–	–	–	–	–
Cc1cc(NC(=O)c2noc(=O)[nH]2)cc(C)c1Cc1cc(F)c(O)c2c1CCCC2 [WX006]	435	86	–	–	–	–	–	–	–	–	–	–	105	90	–	–	–	–	–	–
